Calls of active or inactive are those of the source. No cut-off for these calls is given here.
Experiments:
[1] = Selectivity index, ratio of CC50 for human MT4 cells to EC50 for wild-type HIV1 3B reverse transcriptase infected in human MT4 cells; assay type: toxicity, cell-based; conditions: read-out: Ratio CC50/EC50
[2] = Selectivity index, ratio of CC50 for human MT4 cells to EC50 for HIV1 RES056 reverse transcriptase K103N/Y181C double mutant infected in human MT4 cells; assay type: toxicity, cell-based; conditions: read-out: Ratio CC50/EC50
[3] = (§1) Cytotoxicity against human MT4 cells assessed as reduction in cell viability by MTT assay; assay type: cell-based; conditions: MT4 cells
[4] = test system: Human immunodeficiency virus 1; experiment: Fold resistance, ratio of EC50 for HIV1 reverse transcriptase Y181C mutant infected in human MT4 cells to EC50 for wild-type HIV1 3B reverse transcriptase infected in human MT4 cells; assay type: cell-based
[5] = test system: MT4; experiment: as §1; assay type: cell-based; conditions: mt4
[6] = test system: Human immunodeficiency virus type 1 reverse transcriptase (Human immunodeficiency virus 1), Q72547 [L100I]; experiment: Inhibition of HIV1 reverse transcriptase L100I mutant infected in human MT4 cells assessed as protection against virus-induced cytotoxicity by MTT assay; assay type: cell-based
[7] = test system: Human immunodeficiency virus type 1 reverse transcriptase (Human immunodeficiency virus 1), Q72547 [R221A]; experiment: Inhibition of HIV1 reverse transcriptase Y188L mutant infected in human MT4 cells assessed as protection against virus-induced cytotoxicity by MTT assay; assay type: cell-based
[8] = test system: Human immunodeficiency virus type 1 reverse transcriptase (Human immunodeficiency virus 1), Q72547 [K103N]; experiment: Inhibition of HIV1 reverse transcriptase K103N mutant infected in human MT4 cells assessed as protection against virus-induced cytotoxicity by MTT assay; assay type: cell-based
[9] = test system: Human immunodeficiency virus type 1 reverse transcriptase (Human immunodeficiency virus 1), Q72547 [Y181C]; experiment: Inhibition of HIV1 reverse transcriptase Y181C mutant infected in human MT4 cells assessed as protection against virus-induced cytotoxicity by MTT assay; assay type: cell-based
[10] = test system: Human immunodeficiency virus type 1 reverse transcriptase (Human immunodeficiency virus 1), Q72547 [F227L,V106A]; experiment: Inhibition of HIV1 RES056 reverse transcriptase F227L/V106A double mutant infected in human MT4 cells assessed as protection against virus-induced cytotoxicity by MTT assay; assay type: cell-based
[11] = test system: Human immunodeficiency virus 1; experiment: Fold resistance, ratio of EC50 for HIV1 reverse transcriptase K103N mutant infected in human MT4 cells to EC50 for wild-type HIV1 3B reverse transcriptase infected in human MT4 cells; assay type: cell-based
[12] = test system: Human immunodeficiency virus 1; experiment: Fold resistance, ratio of EC50 for HIV1 reverse transcriptase E138K mutant infected in human MT4 cells to EC50 for wild-type HIV1 3B reverse transcriptase infected in human MT4 cells; assay type: cell-based
[13] = test system: Human immunodeficiency virus type 1 reverse transcriptase (Human immunodeficiency virus 1), Q72547 [F227L,V106A]; experiment: Potency index, ratio of ETV EC50 to test compound EC50 for HIV1 RES056 reverse transcriptase F227L/V106A double mutant infected in human MT4 cells; assay type: cell-based
[14] = target: Human immunodeficiency virus type 1 reverse transcriptase (Human immunodeficiency virus 1) (UniProt Q72547); experiment: Potency index, ratio of ETV EC50 to test compound EC50 for wild-type HIV1 3B reverse transcriptase infected in human MT4 cells; assay type: cell-based
[15] = test system: Human immunodeficiency virus type 1 reverse transcriptase (Human immunodeficiency virus 1), Q72547 [E138K]; experiment: Potency index, ratio of ETV EC50 to test compound EC50 for HIV1 reverse transcriptase E138K mutant infected in human MT4 cells; assay type: cell-based
[16] = test system: Human immunodeficiency virus type 1 reverse transcriptase (Human immunodeficiency virus 1), Q72547 [L100I]; experiment: Potency index, ratio of ETV EC50 to test compound EC50 for HIV1 reverse transcriptase L100I mutant infected in human MT4 cells; assay type: cell-based
[17] = test system: Human immunodeficiency virus type 1 reverse transcriptase (Human immunodeficiency virus 1), Q72547 [K103N,Y181C]; experiment: Potency index, ratio of ETV EC50 to test compound EC50 for HIV1 RES056 reverse transcriptase K103N/Y181C double mutant infected in human MT4 cells; assay type: cell-based
[18] = test system: Human immunodeficiency virus type 1 reverse transcriptase (Human immunodeficiency virus 1), Q72547 [R221A]; experiment: Potency index, ratio of ETV EC50 to test compound EC50 for HIV1 reverse transcriptase Y188L mutant infected in human MT4 cells; assay type: cell-based
[19] = test system: Human immunodeficiency virus type 1 reverse transcriptase (Human immunodeficiency virus 1), Q72547 [K103N]; experiment: Potency index, ratio of ETV EC50 to test compound EC50 for HIV1 reverse transcriptase K103N mutant infected in human MT4 cells; assay type: cell-based

SMILES | selectivity ratio [1] | selectivity ratio [2] | CC50 [3] | also measured
Cc1cc(C#N)cc(C)c1Oc1nc(NC2CCN(Cc3ccc(S(C)(=O)=O)cc3)CC2)nc2ccn(COCc3ccccc3)c12 | 459 | 17 | 10 µM | Ratio EC50 [4]: 0.5 to 0.7
Cc1cc(C#N)cc(C)c1Oc1nc(NC2CCN(Cc3ccc(C(N)=O)cc3)CC2)nc2ccn(S(=O)(=O)c3ccccc3)c12 | 227 | 2 |  | CC50 [5]: > 39.3 µM
Cc1cc(C#N)cc(C)c1Oc1nc(Nc2ccc(C#N)cc2)nc(N)c1Br [ETRAVIRINE] |  |  | 2.16 to 4.59 µM | 
Cc1cc(C#Cc2ccccn2)cc(C)c1Oc1nc(NC2CCN(Cc3ccc(S(N)(=O)=O)cc3)CC2)nc2ccsc12 | 1130 | 12 | 10.3 µM | 
Cc1cc(C#N)cc(C)c1Oc1nc(NC2CCN(Cc3ccc(S(N)(=O)=O)cc3)CC2)nc2ccn(S(=O)(=O)c3ccccc3)c12 | 454 | 33 | 3.67 µM | 
Cc1cc(C#N)cc(C)c1Oc1nc(NC2CCN(Cc3ccc(S(C)(=O)=O)cc3)CC2)nc2ccn(S(=O)(=O)c3ccccc3)c12 | 270 | 26 | 5.15 µM | 
Cc1cc(C#N)cc(C)c1Oc1nc(NC2CCN(Cc3ccco3)CC2)nc2ccsc12 | > 76500 |  | > 254 µM | inhibition [6]: inactive; inhibition [7]: inactive; inhibition [8]: Active; inhibition [9]: inactive; inhibition [10]: inactive
Cc1cc(C#Cc2ccncc2)cc(C)c1Oc1nc(NC2CCN(Cc3ccc(S(N)(=O)=O)cc3)CC2)nc2ccsc12 | 340 | 52 | 11.5 µM | 
Cc1cc(C#N)cc(C)c1Oc1nc(NC2CCN(Cc3cn(S(C)(=O)=O)cn3)CC2)nc2ccsc12 | 3720 | 8 | 21.1 µM | inhibition [6]: inactive; inhibition [7]: inactive; inhibition [9]: inactive; inhibition [10]: inactive
Cc1ccnc2c1NC(=O)c1cccnc1N2C1CC1 [NEVIRAPINE] |  |  | > 15 µM | 
Cc1cc(C#N)cc(C)c1Oc1nc(NC2CCN(Cc3ccc(S(C)(=O)=O)cc3)CC2)nc2cc[nH]c12 | 589 | 16 | 8.12 µM | Ratio EC50 [11]: 0.3 to 0.6
Cc1cc(C#N)cc(C)c1Oc1nc(NC2CCN(Cc3ccc(C(N)=O)cc3)CC2)nc2cc[nH]c12 | 1830 | 118 | 15.9 µM | Ratio EC50 [11]: 0.3 to 0.6
Cc1cc(C#N)cc(C)c1Oc1nc(NC2CCN(Cc3ccc(S(N)(=O)=O)cc3)CC2)nc2ccn(COCc3ccccc3)c12 | 632 | 10 | 4.84 µM | Ratio EC50 [4]: 0.5 to 0.7
Cc1cc(C#N)cc(C)c1Oc1nc(NC2CCN(Cc3ccc(C(N)=O)cc3)CC2)nc2ccn(COCc3ccccc3)c12 | 177 | 9 | 6.44 µM | Ratio EC50 [12]: 0.9; Ratio EC50 [4]: 0.5 to 0.7
Cc1cc(C#N)cc(C)c1Oc1nc(NC2CCN(Cc3ccc(S(N)(=O)=O)cc3)CC2)nc2cc[nH]c12 | 1050 | 61 | 1.91 µM | Ratio EC50 [13]: 1.5 to 2.6; Ratio EC50 [14]: 1.5 to 2.6; Ratio EC50 [15]: 4 to 5; Ratio EC50 [16]: 1.5 to 2.6; Ratio EC50 [17]: 1.5 to 2.6; Ratio EC50 [18]: 4 to 5; Ratio EC50 [11]: 0.3 to 0.6; Ratio EC50 [19]: 4 to 5
Cc1cc(C#N)cc(C)c1Oc1nc(NC2CCN(Cc3ccc(N4CCCC4)cc3)CC2)nc2ccsc12 | 133 | < 1 | 4.35 µM | 
O=C1Nc2ccc(Cl)cc2[C@@](C#CC2CC2)(C(F)(F)F)O1 [EFAVIRENZ] |  |  | > 6.34 µM | 
Cc1cc(C#Cc2cccnc2)cc(C)c1Oc1nc(NC2CCN(Cc3ccc(S(N)(=O)=O)cc3)CC2)nc2ccsc12 | 157 | 42 | 6.39 µM | 
Cc1cc(C#N)cc(C)c1Oc1nc(NC2CCN(Cc3n[nH]c(=O)n3C)CC2)nc2ccsc12 | > 18500 | > 15 | > 254 µM | 
Cc1cc(C#N)cc(C)c1Oc1nc(NC2CCN(Cc3cc(=O)[nH]c(=O)[nH]3)CC2)nc2ccsc12 | 18600 | 15 | 133 µM | inhibition [6]: inactive; inhibition [7]: inactive; inhibition [9]: inactive; inhibition [10]: inactive
Cc1cc(C#N)cc(C)c1Oc1nc(NC2CCN(Cc3c[nH]cn3)CC2)nc2ccsc12 | 4420 | 21 | 24.3 µM | inhibition [6]: inactive; inhibition [7]: inactive; inhibition [9]: inactive; inhibition [10]: inactive
Cc1cc(/C=C/C#N)cc(C)c1Nc1nc(NC2CCN(Cc3ccc(S(N)(=O)=O)cc3)CC2)nc2ccsc12 | 1880 | 419 | 2.3 µM | 
Cc1cc(C#N)cc(C)c1Nc1nc(NC2CCN(Cc3ccc(S(N)(=O)=O)cc3)CC2)nc2ccsc12 | > 159000 | > 7440 | > 227 µM | 
Cc1cn([C@H]2C[C@H](N=[N+]=[N-])[C@@H](CO)O2)c(=O)[nH]c1=O [ZIDOVUDINE] | > 1000 | > 448 | 7.48 µM | 
